Experimental data published in patent US8445190B2, “Method of inhibiting biomaterial-induced procoagulant activity using complement inhibitors” (The Trustees of the University of Pennsylvania, priority 2008, dated 2013).
Where no end group is shown, it is not given here.

What was measured:
[1] = tested on: TF-dependent procoagulant activity of PMN culture supernatants; test: modified prothrombin time (mPT) of supernatants of healthy PMNs incubated with ESRD hemodialysis serum; type: cell-based, human; conditions: for mPT values: FIG. 4A; for effect on procoagulant activity (mPT) induced by ESRD serum in PMN supernatants: in words, FIG. 1A / FIG. 4A
Excerpt: (§1) Complement and anaphylatoxin inhibition studies. I) Compstatin, a 13-residue cyclic peptide (Ac-I[CVWQDWGAHRTC]TNH2) that inhibits the cleavage of native C3 by the C3 convertase, was used as a specific inhibitor of complement activation at the C3 level. In certain studies, a compstatin analog (1-methyl tryptophan as the 4th residue) was used. […] II) SB-290152, a selective nonpeptide antagonist of the complement anaphylatoxin receptor C3aR, was used in this study to dissect the involvement of C3aR signalling in the generation of neutrophil derived TF [27]. III) To block C5aR stimulation on neutrophils, a small cyclic hexapeptide (AcF-[OPdChaWR]) that acts as a selective C5aR antagonist was used. Sera were pre-incubated for 30 min with Compstatin or its linear analogue (15 μM final concentration), before incubation with leukocytes. Furthermore, serum for stimulation was added to leukocytes that had been pre-incubated for 30 min with C3aRa or C5aRa (5-10 μM final concentration). Approximately […] washed cells from healthy donors were used for the subsequent incubations, The final volume was adjusted with PBS at 250 μl and the leukocytes were incubated for 90-120 min at 37° C.
Modified prothrombin time (mPT) assay to examine TF mediated coagulation activity in cell supernatants, complement inhibition and anaphylatoxin receptor studies. Since it has been shown previously that TF dependent procoagulant activity in leukocyte culture supernatants is altered after C5a/C5aR stimulation or blockade, the mPT method was used in order to estimate primarily the kinetics of TF induction. The presence of TF in supernatants is probably due to the presence of the soluble, spliced TF isoform or TF microparticles.
At the end of the incubation period, supernatants of cells were collected by centrifugation at 800 g for 10 min and were checked a second time to confirm the absence of cells and platelets. The coagulation activity properties (TF/FVIIa binding activity) of the cell supernatants were determined using a modified prothrombin time (mPT) assay. Briefly, after performing the “classic” PT test (100 μl platelet poor plasma [PPP] plus 200 μl thromboplastin ISI 1.7 (Instrumentation Laboratory, Milan, Italy), the modified PT analysis was carried out. Namely, 125 μl of cell supernatant and 75 μl thromboplastin were added to 100 μl of PPP to measure the changes of PT. As control of mPT, 125 μl of PBS was used instead of cell supernatant and the in vitro clotting time usually ranged from 31 to 34 sec.
To verify that the thromboplastic activity was due to TF alone, supernatants were incubated for 30 min with a specific neutralizing anti-TF monoclonal antibody (mAb, No 4509, American Diagnostica, Greenwich, Conn., USA), 10 μg/ml, at room temperature. PT was then measured by the mPT method. Non-specific controls involved incubation with the same subclass and concentration of mouse anti-human antibodies, as well as with different secondary antibodies.
Serum of ESRD patients exerts procoagulant activity through TF induction and follows a time dependent manner during the hemodialysis course. […] The procoagulant activity of the above cell culture supernatants was measured using the mPT method.

[2] = tested on: TF-dependent procoagulant activity of PMN culture supernatants; test: mPT of PMN supernatants after incubation with serum preincubated with polysulfone hemodialysis filter fibers; type: cell-based, human; conditions: for mPT: FIG. 5C
Procedure: (§2) FIG. 5: Hemodialysis filter fibers induce in vitro TF dependent procoagulant properties in both ESRD and healthy serum through complement activation. […] C3b generation was detected by […]. CVF-activated plasma was used as a standard for 100% complement activation. The percentage of complement activation is depicted in the diagram. B: Serum from healthy donors was preincubated with hollow fibers from polysulfone hemodialysis filters at different time periods (10, 30, 60 & 120 min). PMNs were incubated with the pretreated serum and their supernatants were assayed for TF with mPT. A time-dependent procoagulant activity was observed (bar 2: 28.06±0.21, 3: 27.32±0.39, 4: 25.65±0.78, 5: 24.67±0.47, p<0.01 compared to bar 1: 31.81±0.28), which was blocked by the addition of anti-TF mAb in supernatants showing the highest procoagulant effect (bar 6: 31.49±0.12, p<0.05 compared to bar 5). C: Predialysis ESRD serum preincubated for 60 min with filter fibers, induced stronger procoagulant activity in PMN culture supernatants compared to when healthy serum was used (bars 3: 25.65±0.78, 6: 20.06±0.35, p<0.01 compared to bars 1: 33.12±0.25, 2: 29.07±0.33, respectively). Inhibitions with compstatin or C5aR antagonist, in both pre-treated sera, elucidated that the observed TF-dependent procoagulant activity was complement mediated (bars 4: 29.60±0.57, 5: 29.15±0.49 & 7: 26.85±0.21, 8: 26.05±0.35, p<0.01 compared to bars 3 and 6, respectively).
Complement and anaphylatoxin inhibition studies. I) Compstatin, a 13-residue cyclic peptide (Ac-I[CVWQDWGAHRTC]TNH2) that inhibits the cleavage of native C3 by the C3 convertase, was used as a specific inhibitor of complement activation at the C3 level. […]
At the end of the incubation period, supernatants of cells were collected by centrifugation at 800 g for 10 min and were checked a second time to confirm the absence of cells and platelets. The coagulation activity properties (TF/FVIIa binding activity) of the cell supernatants were determined using a modified prothrombin time (mPT) assay. […]

[3] = tested on: TF mRNA expression in PMNs; test: real time RT-PCR of TF mRNA in PMNs incubated with activated ESRD serum; type: cell-based, human; conditions: FIG. 4B
Procedure: 4: Involvement of the complement pathway in the procoagulant properties of ESRD serum. […] In contrast, both a selective C3aR antagonist (10 μM-30 min) and a non-active linear analogue of compstatin had no effect on mPT values (bars 6, 7: 22.99±0.26 and 24.16±0.23, respectively; p: n.s. vs. bar 3).
as §1
RNA extraction, RT & relative quantitative real-time PCR analysis. […] In order to quantify the relative expression level of the two TF isoforms with coagulant properties [(full-length TF (referred to hereafter as ‘TF’) and alternative spliced TF (asTF)], isoform specific real-time PCR was performed. In each sample TF, asTF and GAPDH mRNA sequence-specific primers and probes for detection were applied. The 2^−DDCT method was used for quantification of the target gene expression.

[4] = tested on: complement activation (C3b generation); test: C3b generation ELISA in plasma incubated with hemodialysis filter fibers; type: biochemical; conditions: in words; FIG. 5A; plasma with 15 mg fibers, over time, two concentrations
Procedure: as §2, with “Inhibitions with compstatin or C5aR antagonist, in both pre-treated sera, elucidated that the observed TF-dependent procoagulant activity was complement mediated (bars 4: 29.60±0.57, 5: 29.15±0.49 & 7: 26.85±0.21, 8: 26.05±0.35, p<0.01 compared to bars 3 and 6, respectively).” left out

[5] = tested on: complement activation (C3b); test: hemodialysis simulation with whole blood: ELISA of C3 cleavage products (C3-9 mAb) in plasma; type: biochemical, human; conditions: in words; 40 uM in whole blood circuit; FIG. 7A
Excerpt: (§3) FIG. 7. Complement activation during hemodialysis simulation is reduced or prevented by a compstatin analog. […] A: ELISA detection of complement activation fragment C3b using a C3-9 mAB. B: Detection of cellular cascade activation by flow cytometry after surface staining of blood neutrophils for CD11b. C: Detection of coagulation cascade activation by flow cytometry after intracellular staining of blood neutrophils for tissue factor (TF).
(§4) Whole blood was collected from healthy volunteers. […] All experiments were started within 30 min after blood collection.
(§5) To minimize the blood volume needed, HPH Junior polysulfone dialyzers (Minntech Corporation) were used. Standard bloodline components served as tubing system (Arterial & venous blood lines, Set a/v for Fresenius 2008/4008, HMC Premedical S.p.A., Italy). […]
(§6) To examine the activation of crucial pathways involved in the interaction of blood with the artificial surface of the dialyzer, complement, coagulation and neutrophil activation were analyzed. Briefly, complement activation was measured in plasma using a monoclonal antibody C3-9 (2 ug/ml), which recognizes a neoantigen that is exposed in C3(H2O), C3b and C3c but not in native C3. Neutrophil activation was assessed using flow cytometry after surface staining of CD11b (PE Mouse Anti-human CD11b/Mac-1, Cat. No 555388, BD Pharmigen). […]

[6] = tested on: tissue factor (TF) in blood neutrophils; test: hemodialysis simulation with whole blood: flow cytometry of intracellular tissue factor in blood neutrophils; type: cell-based, human; conditions: in words; 40 uM in whole blood circuit; FIG. 7C
Excerpt: as §3, §4, §5, §6

[7] = tested on: CD11b on blood neutrophils; test: hemodialysis simulation with whole blood: flow cytometry of CD11b on blood neutrophils; type: cell-based, human; conditions: in words; 40 uM in whole blood circuit; FIG. 7B
Excerpt: as §3, §4, §5, §6

[8] = PMNs preincubated with receptor antagonist (10 μM-30 min), then ESRD serum of 15 to 30 min of hemodialysis, no antagonist bar 3: 22.96±0.22, control bar 1: 31.96±0.21

NC(N)=NCCC[C@H](NC(=O)COCC(c1ccccc1)c1ccccc1)C(=O)O [C3aR antagonist, SB-290152]
mPT values [1, 8]: 22.99±0.26
effect on procoagulant activity (mPT) induced by ESRD serum in PMN supernatants [1]: did not affect the mPT values
effect on procoagulant activity induced by filter-fiber treated serum in neutrophil supernatants ([2]; in words, FIG. 5B/5C): no effect on the procoagulant activity

Acetyl-Phe-[Orn-Pro-D-cyclohexylalanine-Trp-Arg] (FXPXWR; non-natural residues; cyclised or stapled) [C5aR antagonist]
mPT values [1, 8]: 31.65±0.28
effect on procoagulant activity (mPT) induced by ESRD serum in PMN supernatants [1]: abrogated the observed procoagulant activity
average DCt of TF mRNA ([3]; PMNs incubated with activated serum bar 1: 7.92±0.29): 9.02±0.62
fold decrease of TF mRNA expression ([3]; vs. PMNs incubated with activated serum (bar 1)): 2.14 fold
effect on TF expression in PMNs (2^−DDCT analysis) ([3]; in words): inhibited the stimulation effect
mPT ([2]; healthy serum preincubated 60 min with filter fibers, without inhibitor bar 3: 25.65±0.78): 29.15±0.49
mPT ([2]; predialysis ESRD serum preincubated 60 min with filter fibers, without inhibitor bar 6: 20.06±0.35): 26.05±0.35

IAVWQDWGAHRTAT-NH2 [non-active linear analogue of compstatin, reference compound]
mPT values ([1]; ESRD serum taken at 15 to 30 min of hemodialysis treated with peptide (15 μM-30 min), healthy donor's PMNs (N=6), untreated serum bar 3: 22.96±0.22, control bar 1: 31.96±0.21): 24.16±0.23
inhibition of complement activation induced by hemodialysis biomaterials (C3b generation) [4]: not inhibited

I[CV^(1−Me)WQDWGAHRC]I—NH2 [compstatin analog 4[1MeW]]
effect on time-dependent complement activation (C3 cleavage products in plasma) [5]: abrogated this activation
effect on coagulation cascade activation (intracellular TF in neutrophils) [6]: attenuated
effect on cellular activation (CD11b surface staining of neutrophils) [7]: attenuated
